Experimental data published in patent US5654451A, “Amino acids and peptides having modified C-terminals and modified N-terminals” (Magainin Pharmaceuticals Inc., priority 1995, dated 1997).
In brackets after ≈: the same amount, converted by molar mass. Several values for one entry are separate records, joined by “and”; a condition that tells them apart may be missing. Identical values can stand only once.

Assays:
Test in all cases: Antimicrobial assay (MIC, microtiter broth dilution)
Type in all cases: cell-based
C. albicans = settings: for MIC C. albicans: Table I; for MIC Candida: Table VI
Protocol: (§1) The procedure for the antimicrobial assay is based upon the guidelines of the National Committee for Clinical Laboratory Standards, Document M7-T2, Volume 8, No. 8, 1988.
(§2) 1-5×10^5 CFUs/ml of either S. aureus ATCC 25923, E. coli ATCC 25922, P. aeruginosa ATCC 27853, or C. albicans were added to the wells in full strength Mueller Hinton broth (BBL 11443) from a mid-log culture. The inoculum is standardized spectrophotometrically at 600 nm and is verified by colony counts. The plates are incubated for 16-20 hours at 37° C., and the minimal inhibitory concentrations (MIC) for the compounds are determined. Minimal inhibitory concentration is defined as the lowest concentration of amino acid or peptide which produces a clear well in the microtiter plate.

E. coli = test system: E. coli
Protocol: as §1, §2

P. aeruginosa = settings: for MIC P aeruginosa: Table I, P. aeruginosa ATCC 27853; for MIC Psuedo: Table VI
Protocol: as §1, §2

S. aureus = settings: for MIC S. aureus: Table I, S. aureus ATCC 25923; for MIC Staph: Table VI
Protocol: as §1, §2

Row | Compound | MIC C. albicans (C. albicans) [µg/mL] | MIC E. coli (E. coli; Table I, E. coli ATCC 25922) [µg/mL] | MIC P aeruginosa (P. aeruginosa) [µg/mL] | MIC S. aureus (S. aureus) | MIC Candida (C. albicans) | MIC E. coli (E. coli; Table VI) [µg/mL] | MIC Psuedo (P. aeruginosa) | MIC Staph (S. aureus) [µg/mL]
1 | CCCCCCCCN(CCCCCCCC)C(=O)C(Cc1ccccc1)N=C(N)N (stereo not drawn) [Compound 32, N-α-amidino-phenylalanyl dioctylamide] | 2 (≈ 4.64 µM) | 8 (≈ 18.6 µM) | 128 (≈ 297 µM) | 1,2 μg/ml |  |  |  | 
2 | N-α-amidino phenylalanyl tetradecylamide [Compound 33] | 16 | 128 | > 256 | 8 µg/mL |  |  |  | 
3 | N=C(N)NC(Cc1ccccc1)C(=O)NC1CCCCC1 (stereo not drawn) [Compound 77, N^α -Amidino-Phe-cyclohexylamide] |  |  |  |  | > 256 µg/mL | > 256 | > 256 µg/mL | 128 (≈ 444 µM)
4 | N^α -Amidino-Phe-didecylamide [Compound 69] |  |  |  |  | 32 µg/mL and 64 µg/mL | 16 | > 256 µg/mL and 256 µg/mL | 
5 | CCCCCCCCN(CCCCCCCC)C(=O)C(Cc1ccc(N)cc1)NC(=N)N (stereo not drawn) [Compound 88, N^α -Amidino-p-amino-Phe-dioctylamide] |  |  |  |  | 0.5 µg/mL (≈ 1.12 µM) | 4 (≈ 8.97 µM) | 32 µg/mL (≈ 71.8 µM) | 1 (≈ 2.24 µM)
6 | CCCCCCCCN(CCCCCCCC)C(=O)[C@@H](Cc1ccccc1)NC(=N)N [Compound 70, N^α -Amidino-D Phe-dioctylamide] |  |  |  |  | 2 µg/mL (≈ 4.64 µM) | 64 (≈ 149 µM) | 256 µg/mL (≈ 594 µM) | 2 (≈ 4.64 µM)
7 | CCCCCCCCN(CCCCCCCC)C(=O)[C@H](Cc1ccccc1)NC(=O)CC(O)CNC(=N)N (stereo partly drawn) [Compound 85, γ-Guanidino-β-hydroxy butyryl-Phe-dioctylamide] |  |  |  |  | 0.5 µg/mL (≈ 0.94 µM) | 32 (≈ 60.2 µM) | 64 µg/mL (≈ 120 µM) | 1 (≈ 1.88 µM)
8 | β-Guanidino-propionyl dioctylamide [Compound 75] |  |  |  |  | 1.0 µg/mL | 4 to 8 | 16 µg/mL | 0.5 to 1.0
9 | CCCCCN(CCCCC)C(=O)C(Cc1ccccc1)NC(=N)N (stereo not drawn) [Compound 67, N^α -Amidino-Phe-dipentylamide] |  |  |  |  | 64 µg/mL (≈ 185 µM) | 64 (≈ 185 µM) | 128 µg/mL (≈ 369 µM) | 4 (≈ 11.5 µM)
10 | CCCCCCCCN(CCCCCCCC)C(=O)C(Cc1cnc[nH]1)NC(=N)N (stereo not drawn) [Compound 78, N^α -Amidino-His-dioctylamide] |  |  |  |  | 1 µg/mL (≈ 2.38 µM) | 4 (≈ 9.51 µM) | 8 µg/mL (≈ 19 µM) | 1 (≈ 2.38 µM)
11 | phenylalanyl heptylamide [Compound 26] | 128 | 128 | > 256 | 256 µg/mL |  |  |  | 
12 | CCCCCCCCN(CCCCCCCC)C(=O)C(Cc1ccc(F)cc1)NC(=N)N (stereo not drawn) [Compound 83, N^α -Amidino-p-F-Phe-diocytlamide] |  |  |  |  | 2 µg/mL (≈ 4.46 µM) | 64 (≈ 143 µM) | 128 µg/mL (≈ 285 µM) | 2 (≈ 4.46 µM)
13 | p-Guanidino methyl-benzoyl dioctylamide [Compound 72] |  |  |  |  | 0.5 µg/mL | 4 | 64 µg/mL | 1
14 | CCCCCCCNC(=O)C(Cc1ccc(C(=N)N)cc1)NC(=N)N (stereo not drawn) [Compound 29, p-guanyl-N-α-amidino-phenylalanyl heptylamide] | 256 (≈ 739 µM) | > 256 | > 256 | 64 µg/mL (≈ 185 µM) |  |  |  | 
15 | β-Guanidino-propionyl adamantanamide [Compound 82] |  |  |  |  | > 256 µg/mL | > 256 | > 256 µg/mL | 64
16 | CCCCCCCCN(CCCCCCCC)C(=O)CCNC(=O)CC(O)CNC(=N)N (stereo not drawn) [Compound 87, γ-Guanidino-β-hydroxy butyryl-β-Ala-dioctylamide] |  |  |  |  | 0.5 µg/mL (≈ 1.1 µM) | 4 (≈ 8.78 µM) | 16 µg/mL (≈ 35.1 µM) | 2 (≈ 4.39 µM)
17 | N=C(N)NC(Cc1ccccc1)C(=O)Nc1ccc(C=Cc2ccc(NC(=O)C(Cc3ccccc3)NC(=N)N)cc2)cc1 (stereo not drawn) [Compound 47, 4,4'-[Di-(N^α -amidino-Phe)] diaminostilbene] |  |  |  |  | 256 µg/mL (≈ 435 µM) | 16 (≈ 27.2 µM) | 32 µg/mL (≈ 54.4 µM) | 05 to 10
18 | CCCCCCCCN(CCCCCCCC)C(=O)C(Cc1c[nH]c2ccccc12)NC(=N)N (stereo not drawn) [Compound 66, N^α -Amidino-Trp-dioctylamide] |  |  |  |  | 16 µg/mL (≈ 34.1 µM) | 256 (≈ 545 µM) | 256 µg/mL (≈ 545 µM) | 8 (≈ 17 µM)

Row | Compound | MIC C. albicans (C. albicans) [µg/mL] | MIC E. coli (E. coli; Table I, E. coli ATCC 25922) [µg/mL] | MIC P aeruginosa (P. aeruginosa) [µg/mL] | MIC S. aureus (S. aureus) | MIC Candida (C. albicans) | MIC E. coli (E. coli; Table VI) [µg/mL] | MIC Psuedo (P. aeruginosa) | MIC Staph (S. aureus) [µg/mL]
19 | CCCCCCCCN(CCCCCCCC)C(=O)C(CC1CCCCC1)NC(=N)N (stereo not drawn) [Compound 74, N^α -Amidino-Cha-dioctylamide] |  |  |  |  | 2 µg/mL (≈ 4.58 µM) | > 256 | > 256 µg/mL | 2 (≈ 4.58 µM)
20 | NC(N)=NCCCC(N)C(=O)NCCCCCCCCCCCCNC(=O)C(N)CCCN=C(N)N (stereo not shown) [Compound 8, 1,12-[di-arginyl]diaminododecane] | > 256 | > 256 | > 256 | 128 µg/mL (≈ 250 µM) |  |  |  | 
21 | CCCCCCCCN(CCCCCCCC)C(=O)CC(O)CNC(=N)N (stereo not drawn) [Compound 84, γ-Guanidino-β-hydroxy butyrul dioctylamide] |  |  |  |  | 0.5 µg/mL (≈ 1.3 µM) | 4 (≈ 10.4 µM) | 16 µg/mL (≈ 41.6 µM) | 1 (≈ 2.6 µM)
22 | N=C(N)NC(CCC(=O)NC12CC3CC(CC(C3)C1)C2)C(=O)NC12CC3CC(CC(C3)C1)C2 (stereo not drawn) [Compound 86, N^α -Amidino-Glu-(α,γ) diadamantanamide] |  |  |  |  | 32 to 64 µg/mL | 128 (≈ 281 µM) | 128 µg/mL (≈ 281 µM) | 4 (≈ 8.78 µM)
23 | NC(N)=NCCCC(N)C(=O)Nc1ccc(C=Cc2ccc(NC(=O)C(N)CCCN=C(N)N)cc2)cc1 (stereo not shown) [Compound 49, 4,4'-[Di-Arg] diaminostilbene] |  |  |  |  | 64 µg/mL (≈ 122 µM) | 256 (≈ 490 µM) | 128 µg/mL (≈ 245 µM) | 8 (≈ 15.3 µM)
24 | β-Guanidino-propionyl dodecylamide [Compound 37] |  |  |  |  | 4 µg/mL | 4 to 8 | 16 µg/mL | 1
25 | CCCCCCCCN(CCCCCCCC)C(=O)CCCCNC(=N)N [Compound 79, S-Guanidino Valeryl-dioctylamide] |  |  |  |  | 1 to 2 µg/mL | 8 (≈ 20.9 µM) | > 256 µg/mL | 2 (≈ 5.23 µM)
26 | N-α-amidino-phenylalanyl dodecylamide [Compound 31] | 4 | 8 | 64 | 2 µg/mL |  |  |  | 
27 | γ-Guanidino-butyryl dioctylamide [Compound 71] |  |  |  |  | < 0.25 µg/mL | 4 | 32 µg/mL | 0.5 to 1.0
28 | CCCCCCCCN(CCCCCCCC)C(=O)C(N)Cc1ccccc1 (stereo not shown) [Compound 81, Phe-dioctylamide] |  |  |  |  | > 256 µg/mL | > 256 | > 256 µg/mL | 4 (≈ 10.3 µM)
29 | CCCCCCCCN(CCCCCCCC)C(=O)C(Cc1ccc2ccccc2c1)N=C(N)N (stereo not drawn) [Compound 73, N^α -Amidino-β-Nal-dioctylamide] |  |  |  |  | 4 µg/mL (≈ 8.32 µM) | > 256 | > 256 µg/mL | 4 (≈ 8.32 µM)
30 | N-α-amidino phenylalanyl heptylamide [Compound 27] | 64 | 128 | 128 | 8 µg/mL |  |  |  | 
31 | CCCCCCCCCCCCNC(=O)c1ccc(CNC(=N)N)cc1 [Compound 38, P-Guanidino-methyl-benzoyl-dodecylamide] |  |  |  |  | 4 µg/mL (≈ 11.1 µM) | 16 (≈ 44.4 µM) | 64 µg/mL (≈ 178 µM) | 1 to 2
32 | CCCCCCCCN(CCCCCCCC)C(=O)C(Cc1ccccc1)NCc1ncc[nH]1 (stereo not drawn) [Compound 80, N^α -(Imidazole-2-methyl)-Phe-dioctylamide] |  |  |  |  | > 256 µg/mL | > 256 | > 256 µg/mL | 2 (≈ 4.27 µM)
33 | N=C(N)NC(Cc1ccccc1)C(=O)NC12CC3CC(CC(C3)C1)C2 (stereo not drawn) [Compound 76, N^α -Amidino-Phe-adamantanamide] |  |  |  |  | 128 µg/mL (≈ 376 µM) | 256 (≈ 752 µM) | 256 µg/mL (≈ 752 µM) | 16 (≈ 47 µM)
34 | N-α-amidino phenylalanyl hexadecylamide [Compound 34] | 64 | > 256 | > 256 | 32 µg/mL |  |  |  | 
35 | CCCCCCN(CCCCCC)C(=O)C(Cc1ccccc1)NC(=N)N (stereo not drawn) [Compound 68, N^α -Amidino-Phe-dihexylamide] |  |  |  |  | 4 to 16 µg/mL | 16 to 32 | 16 to 64 µg/mL | 0.5 to 1.0
